Data: patent US20230331739A1, “INDOLO HEPTAMYL OXIME ANALOG CRYSTAL AS PARP INHIBITOR AND METHOD FOR PREPARING SAME” (CHIA TAI TIANQING PHARMACEUTICAL GROUP CO., LTD., priority 2020, published 2023)
Like-named read-outs stand apart in the source and are kept apart here.

Experiments:
[1] = tested on: MDA-MB-436 cells with BRCA1 mutation; experiment: Anti-proliferation study on MDA-MB-436 cells (CellTiter-Glo); type: cell-based; conditions: Homo sapiens, MDA-MB-436, 168 h; 7 days incubation
Procedure: Materials: test compounds; RPMI-1640 medium; fetal bovine serum; penicillin/streptomycin antibiotic; MDA-MB-436 cells; Envision Multimode Plate Reader (PerkinElmer). MDA-MB-436 cells were seeded in a white 96-well plate by adding 80 μL of cell suspension (containing 3000 MDA-MB-436 cells) to each well. The cell plate was incubated in a CO2 incubator overnight. The test compounds were serially 5-fold diluted to the 8th concentration with a multichannel pipette, i.e., from 2 mM to 26 nM, in duplicate. 78 μL of medium was added to an intermediate plate, and the serially diluted compound was transferred to the intermediate plate at 2 μL per well. After being mixed well, the mixture was transferred to the cell plate at 20 μL per well. […] Another cell plate was provided for reading signal values on the day of compound addition and these signal values were used as Max values in data analysis. Promega CellTiter-Glo was added to the cell plate at 25 μL per well and the luminescence signals were stabilized by incubation for 10 min at room temperature. Readings were taken using a PerkinElmer Envision Multimode Plate Reader. […]

[2] = Preliminary stability examination at 60° C. and 75% humidity; type: physicochemical; conditions: 60° C. 75% RH
Procedure: 1. Preliminary Stability Examination • Examination conditions: The stability of crystalline form A and crystalline form B was simultaneously examined at 60° C. and 75% humidity.

[3] = Accelerated stability test at 40° C.±2° C. and 75±5% RH; type: physicochemical; conditions: 40° C. ± 2° C./75 ± 5% RH
Procedure: 2. Accelerated Test • Examination conditions: Samples of crystalline form A of the compound of formula (I) were packed into double-layer pharmaceutical low-density polyethylene bags. Each layer of the pharmaceutical low-density polyethylene bag was sealed, then the bags were put into aluminum foil bags, and the aluminum foil bags were heat-sealed. Accelerated test was conducted at 40° C.±2° C. and 75±5% RH.

[4] = Single-dose pharmacokinetic study in mice; type: in vivo, male C57BL/6 mice
Procedure: Objectives: To evaluate the pharmacokinetic behavior in male C57BL/6 mice and to determine the drug concentrations of the compound in the plasma, liver and cerebrospinal fluid after a single dose.
Procedures: Healthy adult male C57BL/6 mice were selected for intragastric administration. The candidate compound was mixed with an appropriate amount of 10% DMSO/90% (20% hydroxypropyl-@-cyclodextrin), vortexed and sonicated to prepare a 0.5 mg/mL clear solution for later use. After the mice were administered intravenously at 1 mg/kg and orally at 5 mg/kg, whole blood was collected at certain time points. Plasma was separated, and liver and cerebrospinal fluid were collected. After pretreatment of the samples, the drug concentration was measured by LC-MS/MS, and pharmacokinetic parameters were calculated using Phoenix WinNonlin software.

C[C@]1(c2ccc(-c3[nH]c4cc(F)cc5c4c3CONC5=O)cc2)CCCN1.Cl [Crystalline form A]
IC50 [1]: 8.4 nM
Preliminary stability examination (content, %) Day 0 [2]: 99.73%
Preliminary stability examination (content, %) Day 10 [2]: 99.72%
Appearance ([3]; Initial values): Earthy yellow
Content ([3]; Initial values): 98.0%
Isomer ([3]; Initial values): Not detectable
Total impurities ([3]; Initial values): 0.45%
Water content ([3]; Initial values): 2.07%
Appearance ([3]; Month 1): Earthy yellow
Content ([3]; Month 1): 96.2%
Isomer ([3]; Month 1): Not detectable
Total impurities ([3]; Month 1): 0.75%
Water content ([3]; Month 1): 2.50%
Appearance ([3]; Month 2): Earthy yellow
Content ([3]; Month 2): 96.9%
Isomer ([3]; Month 2): Not detectable
Total impurities ([3]; Month 2): 0.78%
Water content ([3]; Month 2): 2.26%
Appearance ([3]; Month 3): Earthy yellow
Content ([3]; Month 3): 96.9%
Isomer ([3]; Month 3): Not detectable
Total impurities ([3]; Month 3): 0.62%
Water content ([3]; Month 3): 1.89%
Appearance ([3]; Month 6): Earthy yellow
Content ([3]; Month 6): 97.5%
Isomer ([3]; Month 6): Not detectable
Total impurities ([3]; Month 6): 0.93%
Water content ([3]; Month 6): 2.14%

CNCc1ccc(-c2[nH]c3cc(F)cc4c3c2CCNC4=O)cc1 [Rucaparib, reference compound]
Maximum concentration ([4]; IV: 1 mg/kg PO: 5 mg/kg): 24.8 nM
AUC(0-t) ([4]; male, C57BL/6, mouse, plasma, IV 1 mg/kg, read-out: AUC0-last (intravenous injection)): 0.255 µM·h
half-life ([4]; male, C57BL/6, mouse, plasma, IV: 1 mg/kg PO: 5 mg/kg): 1.78 h
AUC(0-t) ([4]; male, C57BL/6, mouse, plasma, PO 5 mg/kg, read-out: AUC0-last (oral)): 0.145 µM·h

C[C@]1(c2ccc(-c3[nH]c4cc(F)cc5c4c3CONC5=O)cc2)CCCN1.Cl [Crystalline form B]
Preliminary stability examination (content, %) Day 0 [2]: 99.09%
Preliminary stability examination (content, %) Day 10 [2]: 98.93%
